This passage reports IC50 results from patent US12024531B2, “Immunoproteasome inhibitors” (Principia Biopharma Inc., priority 2017, dated 2024).

What is called IC50 is the point on the concentration scale where inhibition reaches its midpoint.

Bounds are passed on as bounds.

Format in all cases: biochemical
The target of assay [1] is constitutive proteasome β5c subunit (Homo sapiens, UniProt P28074). In words: Caliper-based proteasome enzymatic activity assay, β5c. To be noted: human recombinant constitutive proteasome 0.3 nM, FAM peptide substrate 1 μM, rt 3 h.
In assay [2] the target is immunoproteasome LMP7/B5i subunit (Homo sapiens, UniProt P28062). In words: Caliper-based proteasome enzymatic activity assay, LMP7. To be noted: human recombinant immunoproteasome 0.3 nM, FAM peptide substrate 1 μM, rt 3 h.
The target in assay [3] is immunoproteasome LMP2 subunit (Homo sapiens, UniProt P28065). In words: Caliper-based proteasome enzymatic activity assay, LMP2. To be noted: human recombinant immunoproteasome 0.3 nM, FAM peptide substrate 1 μM, rt 2 h.

For `Cc1ccc(C[C@H](NC(=O)CCOc2cccc(C=C(C#N)C(=O)N(C)C)c2)B(O)O)c(C)c1` [Example 44, (R)-(1-(3-(3-(2-cyano-3-(dimethylamino)-3-oxoprop-1-en-1-yl)phenoxy)propanamido)-2-(2,4-dimethylphenyl)ethyl)boronic Acid], the IC50 in assay [1] was 388 nM; in assay [2], 2.1 nM; in assay [3], 3130 nM.

On to `N#CC(=Cc1cccc(OCCC(=O)N[C@@H](Cc2ccccc2)B(O)O)c1)C(=O)N1CCN(C2COC2)CC1` [Example 32, (R)-(1-(3-(3-(2-cyano-3-(4-(oxetan-3-yl)piperazin-1-yl)-3-oxoprop-1-en-1-yl)phenoxy)propanamido)-2-phenylethyl)boronic Acid], for which the IC50 in assay [1] was determined as 60 nM; in assay [2], 4 nM; in assay [3] it was 180 nM.

As to `CN(C)C(=O)C(C#N)=Cc1cccc(CCOC(=O)N[C@@H](Cc2coc3ccccc23)B(O)O)c1` [Example 53, (R)-(2-(benzofuran-3-yl)-1-(((3-(2-cyano-3-(dimethylamino)-3-oxoprop-1-en-1-yl)phenethoxy)carbonyl)amino)ethyl)boronic Acid], the IC50 is 212 nM in assay [1], 1 nM in assay [2] and over 5000 nM in assay [3].

Regarding `CC1(C)COCCN1C(=O)C(C#N)=Cc1cccc(CCOC(=O)N[C@@H](Cc2coc3ccccc23)B(O)O)c1` [Example 93, (R)-(2-(benzofuran-3-yl)-1-(((3-(2-cyano-3-(3,3-dimethylmorpholino)-3-oxoprop-1-en-1-yl)phenethoxy)carbonyl)amino)ethyl)boronic Acid], the IC50 in assay [1] was 45 nM; in assay [2], 1.1 nM; in assay [3] it was over 5000 nM.

In the case of `N#CC(=Cc1cccc(OCCC(=O)N[C@@H](Cc2ccccc2)B(O)O)c1)C(=O)N1CCOCC1` [Example 9, (R)-1-(3-(3-(2-cyano-3-morpholino-3-oxoprop-1-enyl)phenoxy)propanamido)-2-phenylethylboronic Acid], the IC50 in assay [1] is 100 nM; in assay [2], 8 nM; in assay [3] it was 820 nM.

Take `N#CC(=Cc1cccc(CCOC(=O)N[C@@H](CCc2ccccc2)B(O)O)c1)n1cncn1` [Example 106, (R)-(1-(((3-(2-cyano-2-(1H-1,2,4-triazol-1-yl)vinyl)phenethoxy)carbonyl)amino)-3-phenylpropyl)boronic Acid]: the values for the IC50 in assay [1] and in assay [2] were over 5000 nM and 4.8 nM, respectively.

Turning to `CCN(C(=O)C(C#N)=Cc1cccc(CCOC(=O)N[C@@H](Cc2coc3ccccc23)B(O)O)c1)C1CCOCC1` [Example 95, (R)-(2-(benzofuran-3-yl)-1-(((3-(2-cyano-3-(ethyl(tetrahydro-2H-pyran-4-yl)amino)-3-oxoprop-1-en-1-yl)phenethoxy)carbonyl)amino)ethyl)boronic Acid], the results for the IC50 in assay [1] and in assay [2] were 87 nM and 1.2 nM, respectively.

`CCc1cccc(C[C@H](NC(=O)CCOc2cccc(C=C(C#N)C(=O)NC(C)(C)C)c2)B(O)O)c1` [Example 8, (R)-(1-(3-(3-(3-(tert-butylamino)-2-cyano-3-oxoprop-1-en-1-yl)phenoxy)propanamido)-2-(3-ethylphenyl)ethyl)boronic Acid]: the IC50 stood at 420 nM in assay [1] and 16 nM in assay [2].

Turning to `CCN(CC)C(=O)C(C#N)=Cc1cc(C#N)cc(CCOC(=O)N[C@@H](Cc2coc3ccccc23)B(O)O)c1` [Example 97, (R)-(2-(benzofuran-3-yl)-1-(((3-cyano-5-(2-cyano-3-(diethylamino)-3-oxoprop-1-en-1-yl)phenethoxy)carbonyl)amino)ethyl)boronic Acid], the figures for the IC50 in assay [1] and in assay [2] were 43 nM and 0.7 nM, respectively.

Take `N#CC(=Cc1cccc(CCOC(=O)N[C@@H](Cc2ccccc2)B(O)O)c1)n1cncn1` [Example 99, (R)-(1-(((3-(2-cyano-2-(1H-1,2,4-triazol-1-yl)vinyl)phenethoxy)carbonyl)amino)-2-phenylethyl)boronic Acid]: the figures for the IC50 in assay [1] and in assay [2] were 1740 nM and 1.5 nM, respectively.

`CCN(CC)C(=O)C(C#N)=Cc1cc(C#N)cc(CCOC(=O)N[C@@H](Cc2ccccc2)B(O)O)c1` [Example 104, (R)-(1-(((3-cyano-5-(2-cyano-3-(diethylamino)-3-oxoprop-1-en-1-yl)phenethoxy)carbonyl)amino)-2-phenylethyl)boronic Acid]: the results for the IC50 in assay [1] and in assay [2] were 2870 nM and 3.3 nM, respectively.

Take `CC(C)(C)NC(=O)C(C#N)=Cc1cccc(CCC(=O)N[C@@H](Cc2ccccc2)B(O)O)c1` [Example 3, (R)-(1-(3-(3-(3-(tert-butylamino)-2-cyano-3-oxoprop-1-en-1-yl)phenyl)propanamido)-2-phenylethyl)boronic Acid]: the IC50 stood at 120 nM in assay [1] and 10 nM in assay [2].

Take `Cc1ccc(C[C@H](NC(=O)NCCc2cccc(C=C(C#N)n3cncn3)c2)B(O)O)cc1` [Example 107, (R)-(1-(3-(3-(2-cyano-2-(1H-1,2,4-triazol-1-yl)vinyl)phenethyl)ureido)-2-(p-tolyl)ethyl)boronic Acid]: the results for the IC50 in assay [1] and in assay [2] were over 5000 nM and 23 nM, respectively.

Turning to `CCN(C(=O)C(C#N)=Cc1ccc2c(c1)CN(CC(=O)N[C@@H](Cc1coc3ccccc13)B(O)O)CC2)C1CCOCC1` [Example 105, (R)-(2-(benzofuran-3-yl)-1-(2-(7-(2-cyano-3-(ethyl(tetrahydro-2H-pyran-4-yl)amino)-3-oxoprop-1-en-1-yl)-3,4-dihydroisoquinolin-2(1H)-yl)acetamido)ethyl)boronic Acid], the figures for the IC50 in assay [1] and in assay [2] were 21 nM and 1.6 nM, respectively.

`CCN(C(=O)C(C#N)=Cc1cc(C#N)cc(CCOC(=O)N[C@@H](Cc2ccccc2)B(O)O)c1)C1CCOCC1` [Example 102, (R)-(1-(((3-cyano-5-(2-cyano-3-(ethyl(tetrahydro-2H-pyran-4-yl)amino)-3-oxoprop-1-en-1-yl)phenethoxy)carbonyl)amino)-2-phenylethyl)boronic Acid]: the IC50 in assay [1] stood at 1550 nM; in assay [2], 2.2 nM.

Turning to `CCN(CC)C(=O)C(C#N)=Cc1cccc(CCNC(=O)N[C@@H](Cc2coc3ccccc23)B(O)O)c1` [Example 96, (R)-(2-(benzofuran-3-yl)-1-(3-(3-(2-cyano-3-(diethylamino)-3-oxoprop-1-en-1-yl)phenethyl)ureido)ethyl)boronic Acid], the IC50 in assay [1] was found to be 328 nM; in assay [2], 2.1 nM.

For `CC(C)NC(=O)C(C#N)=Cc1cccc(OCCC(=O)N[C@@H](Cc2ccccc2)B(O)O)c1` [Example 12, (R)-1-(3-(3-(2-cyano-3-(isopropylamino)-3-oxoprop-1-enyl)phenoxy)propanamido)-2-phenylethylboronic Acid], the IC50 in assay [1] was determined as 100 nM; in assay [2], 4 nM.

As to `CCN(C(=O)C(C#N)=Cc1cccc(CCNC(=O)N[C@@H](Cc2coc3ccccc23)B(O)O)c1)C1CCOCC1` [Example 100, (R)-(2-(benzofuran-3-yl)-1-(3-(3-(2-cyano-3-(ethyl(tetrahydro-2H-pyran-4-yl)amino)-3-oxoprop-1-en-1-yl)phenethyl)ureido)ethyl)boronic Acid], the results for the IC50 in assay [1] and in assay [2] were 1430 nM and 5.2 nM, respectively.

`CCN(C(=O)C(C#N)=Cc1cc(C#N)cc(CCOC(=O)N[C@@H](Cc2ccc(C)cc2)B(O)O)c1)C1CCOCC1` [Example 103, (R)-(1-(((3-cyano-5-(2-cyano-3-(ethyl(tetrahydro-2H-pyran-4-yl)amino)-3-oxoprop-1-en-1-yl)phenethoxy)carbonyl)amino)-2-(p-tolyl)ethyl)boronic Acid]: the IC50 in assay [1] was 460 nM; in assay [2] it was 1.4 nM.

Consider `CC(C)(C)C[C@H](NC(=O)CCOc1cccc(C=C(C#N)C(=O)NC(C)(C)C)c1)B(O)O` [Example 13, (R)-1-(3-(3-(3-(tert-butylamino)-2-cyano-3-oxoprop-1-enyl)phenoxy)propanamido)-3,3-dimethylbutylboronic Acid], for which the results for the IC50 in assay [1] and in assay [2] were 3930 nM and 149 nM, respectively.

Take `CC(C)(C)NC(=O)C(C#N)=Cc1ccc(F)c(OCCC(=O)N[C@@H](Cc2ccccc2)B(O)O)c1` [Example 18, (R)-(1-(3-(5-(3-(tert-butylamino)-2-cyano-3-oxoprop-1-en-1-yl)-2-fluorophenoxy)propanamido)-2-phenylethyl)boronic Acid]: the results for the IC50 in assay [1] and in assay [2] were 85 nM and 15 nM, respectively.

As for `C[C@@H]1COC[C@@H](C)N1C(=O)C(C#N)=Cc1cccc(CCOC(=O)N[C@@H](Cc2coc3ccccc23)B(O)O)c1` [Example 98, ((R)-2-(benzofuran-3-yl)-1-(((3-(2-cyano-3-((3R,5R)-3,5-dimethylmorpholino)-3-oxoprop-1-en-1-yl)phenethoxy)carbonyl)amino)ethyl)boronic Acid], the figures for the half-maximal inhibitory concentration (IC50) in assay [1] and in assay [2] were 71 nM and 0.5 nM, respectively.

As to `CC(C)(C)NC(=O)C(C#N)=Cc1cccc(CC[C@H](NC(=O)c2cnccn2)C(=O)N[C@@H](Cc2ccccc2)B(O)O)c1` [Example 1, ((R)-1-((S)-4-(3-(3-(tert-butylamino)-2-cyano-3-oxoprop-1-en-1-yl)phenyl)-2-(pyrazine-2-carboxamido)butanamido)-2-phenylethyl)boronic Acid], the concentration for half-maximal inhibition (IC50) is 32 nM in assay [1] and 6 nM in assay [2].

Consider `CCN(CC)C(=O)C(C#N)=Cc1ccc2c(c1)CN(CC(=O)N[C@@H](Cc1ccc(C)cc1)B(O)O)CC2` [Example 108, (R)-(1-(2-(7-(2-cyano-3-(diethylamino)-3-oxoprop-1-en-1-yl)-3,4-dihydroisoquinolin-2(1H)-yl)acetamido)-2-(p-tolyl)ethyl)boronic Acid], for which the 50% inhibitory concentration (IC50) is over 5000 nM in assay [1] and 35 nM in assay [2].

Consider `CCN(CC)C(=O)C(C#N)=Cc1ccc2c(c1)CN(CC(=O)N[C@@H](Cc1ccccc1)B(O)O)CC2` [Example 109, (R)-(1-(2-(7-(2-cyano-3-(diethylamino)-3-oxoprop-1-en-1-yl)-3,4-dihydroisoquinolin-2(1H)-yl)acetamido)-2-phenylethyl)boronic Acid], for which the IC50 in assay [1] was determined as 77 nM; in assay [2], 7.5 nM.
